Test results published in patent US4513001A, “β-Adrenergic 1-[1-benzimidazolyl]-N-[2-(4-hydroxy-3-methoxy-phenyl)-2-hydroxy-ethyl]- 3-amino butane and salts and hydrates thereof” (priority 1982, dated 1985).
Where two headings read alike, the source gives them in different places.

What was measured:
[1] = system: heart rate; test: β-stimulant specificity: heart rate of the anesthetised dog, antagonism of compound A tachycardia by acebutolol; format: in vivo
Text: The results below are the averages of the values obtained in 3 dogs.

[2] = Acute toxicity in the mouse, intravenous; conditions: in vivo
Text: These two compounds were the subject of an acute toxicity study in the mouse.
The two compounds had similar toxicity and the pharmacological study was able, indifferently, to be carried out with one or the other, the results being, in the two cases, expressed by weight of base per kg of body weight for the in vivo tests and in molar concentration for the in vitro tests.

[3] = system: heart rate; test: Heart rate of the un-anesthetised dog, oral; format: in vivo, Beagle dog
[4] = T1 + 1 min after acebutolol 0.5 mg/kg i.v., following compound A perfusion
[5] = T1 + 5 min after acebutolol 0.5 mg/kg i.v.
[6] = T1 + 15 min after acebutolol 0.5 mg/kg i.v.
[7] = T1 + 30 min (printed T i) after acebutolol 0.5 mg/kg i.v.
[8] = T1 + 1 h after acebutolol 0.5 mg/kg i.v.
[9] = T1 + 4 h after acebutolol 0.5 mg/kg i.v.

CCCC(=O)Nc1ccc(OCC(O)CNC(C)C)c(C(C)=O)c1 (centres unmarked) [Acebutolol, reference compound]
Heart rate [1, 4]: 162 beats/min
Heart rate variation [1, 4]: +5
Heart rate [1, 5]: 156 beats/min
Heart rate variation [1, 5]: -1
Heart rate [1, 6]: 149 beats/min
Heart rate variation [1, 6]: -8
Heart rate [1, 7]: 147 beats/min
Heart rate variation [1, 7]: -10
Heart rate [1, 8]: 154 beats/min
Heart rate variation [1, 8]: -3
Heart rate [1, 9]: 143 beats/min
Heart rate variation [1, 9]: -14
Antagonism of the tachycardia caused by compound A ([1]; acebutolol 0.5 mg/kg i.v., compound A perfused 6 min at 4.2 μg/kg/min): completely antagonises the tachycardia caused by compound A

COc1cc(C(O)CNC(C)CCn2cnc3ccccc32)ccc1O.Cl.Cl.O.O (centres unmarked) [Compound B, 1-[1-benzimidazolyl]-N-[2-(4-hydroxy-3-methoxy-phenyl)-2-hydroxy-ethyl]-3-amino-butane dihydrochloride, dihydrate]
LD50 ([2]; as base, confidence limits printed, read-out: LD50 expressed as base): 106 mg/kg
LD50 ([2]; by weight of product, confidence limits p=0.05 printed, read-out: LD50): 148 mg/kg
Heart rate, average ([3]; 22 μg base/kg, 15 min, time 0: 94, 12 dogs): 130
Heart rate, average ([3]; 22 μg base/kg, 30 min, time 0: 94): 129
Heart rate, average ([3]; 22 μg base/kg, 1 h, time 0: 94): 129
Heart rate, average ([3]; 22 μg base/kg, 2 h, time 0: 94): 119
Heart rate, average ([3]; 22 μg base/kg, 3 h, time 0: 94): 109
Heart rate, average ([3]; 22 μg base/kg, 4 h, time 0: 94): 104
Heart rate, average ([3]; 22 μg base/kg, 5 h, time 0: 94): 102
Heart rate, average ([3]; 72 μg base/kg, 15 min, time 0: 90, 12 dogs): 147
Heart rate, average ([3]; 72 μg base/kg, 30 min, time 0: 90): 162
Heart rate, average ([3]; 72 μg base/kg, 1 h, time 0: 90): 162
Heart rate, average ([3]; 72 μg base/kg, 2 h, time 0: 90): 160
Heart rate, average ([3]; 72 μg base/kg, 3 h, time 0: 90): 146
Heart rate, average ([3]; 72 μg base/kg, 4 h, time 0: 90): 132
Heart rate, average ([3]; 72 μg base/kg, 5 h, time 0: 90): 125
Heart rate, average ([3]; 72 μg base/kg, 6 h, time 0: 90): 115
Heart rate, average ([3]; 72 μg base/kg, 7 h, time 0: 90): 112
Tachycardiac activity (comparison with Salbutamol) ([3]; un-anesthetised dog, in words): distinctly less tachycardiac than Salbutamol
